ChEMBL document CHEMBL5550100, “Discovery of LHF418 as a new potent SOS1 PROTAC degrader” (Bioorg Med Chem, 2024)

How the values were obtained:
Assay type in all cases: cell-based
[1] = target: T1, Protein cereblon/Son of sevenless homolog 1 (Homo sapiens, UniProt Q07889+Q96SW2); assay: PROTAC activity at CRBN/SOS1 in human A549 cells assessed as protein degradation at 1 uM incubated for 24 hrs by immunoblot analysis relative to control
[2] = target: T1, Protein cereblon/Son of sevenless homolog 1; assay: PROTAC activity at CRBN/SOS1 in human A549 cells assessed as protein degradation at 10 uM incubated for 24 hrs by immunoblot analysis relative to control
[3] = target: T1, Protein cereblon/Son of sevenless homolog 1; assay: PROTAC activity at CRBN/SOS1 in human A549 cells assessed as protein degradation at 0.1 uM incubated for 24 hrs by immunoblot analysis relative to control

T1 sequence (Q07889 whole entry, looked up): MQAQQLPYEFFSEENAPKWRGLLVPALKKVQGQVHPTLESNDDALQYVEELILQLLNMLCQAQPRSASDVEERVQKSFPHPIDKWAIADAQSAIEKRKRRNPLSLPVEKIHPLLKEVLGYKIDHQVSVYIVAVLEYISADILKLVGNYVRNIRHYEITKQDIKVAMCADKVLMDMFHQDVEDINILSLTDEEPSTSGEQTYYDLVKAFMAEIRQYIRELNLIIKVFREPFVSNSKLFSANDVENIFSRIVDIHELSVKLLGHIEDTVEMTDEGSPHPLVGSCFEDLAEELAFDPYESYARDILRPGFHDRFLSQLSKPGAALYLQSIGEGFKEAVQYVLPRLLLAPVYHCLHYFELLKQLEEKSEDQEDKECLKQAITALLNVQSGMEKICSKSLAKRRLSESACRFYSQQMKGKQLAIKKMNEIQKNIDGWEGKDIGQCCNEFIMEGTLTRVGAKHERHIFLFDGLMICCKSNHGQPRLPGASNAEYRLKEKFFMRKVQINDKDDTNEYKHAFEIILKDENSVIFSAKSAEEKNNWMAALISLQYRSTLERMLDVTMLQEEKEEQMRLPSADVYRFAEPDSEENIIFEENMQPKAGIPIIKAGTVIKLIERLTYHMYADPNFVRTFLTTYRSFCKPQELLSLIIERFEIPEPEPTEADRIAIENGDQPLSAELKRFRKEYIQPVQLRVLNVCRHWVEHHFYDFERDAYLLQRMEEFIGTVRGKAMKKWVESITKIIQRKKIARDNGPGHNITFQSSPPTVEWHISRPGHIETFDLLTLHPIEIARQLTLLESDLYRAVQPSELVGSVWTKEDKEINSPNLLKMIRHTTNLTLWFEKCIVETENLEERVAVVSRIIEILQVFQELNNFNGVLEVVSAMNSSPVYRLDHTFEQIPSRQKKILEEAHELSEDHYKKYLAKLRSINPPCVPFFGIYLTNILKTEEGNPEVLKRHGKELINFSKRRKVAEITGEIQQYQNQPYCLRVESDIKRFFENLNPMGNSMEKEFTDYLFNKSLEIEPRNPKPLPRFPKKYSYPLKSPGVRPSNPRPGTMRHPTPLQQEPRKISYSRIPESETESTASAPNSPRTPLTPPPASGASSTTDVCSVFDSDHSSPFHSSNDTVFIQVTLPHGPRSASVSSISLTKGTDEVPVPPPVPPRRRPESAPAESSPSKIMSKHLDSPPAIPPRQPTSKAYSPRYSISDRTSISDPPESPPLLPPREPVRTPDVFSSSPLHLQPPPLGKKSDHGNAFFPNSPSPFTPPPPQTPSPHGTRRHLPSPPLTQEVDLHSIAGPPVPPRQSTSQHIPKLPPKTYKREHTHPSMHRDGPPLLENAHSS
T1 sequence (Q96SW2 whole entry, looked up): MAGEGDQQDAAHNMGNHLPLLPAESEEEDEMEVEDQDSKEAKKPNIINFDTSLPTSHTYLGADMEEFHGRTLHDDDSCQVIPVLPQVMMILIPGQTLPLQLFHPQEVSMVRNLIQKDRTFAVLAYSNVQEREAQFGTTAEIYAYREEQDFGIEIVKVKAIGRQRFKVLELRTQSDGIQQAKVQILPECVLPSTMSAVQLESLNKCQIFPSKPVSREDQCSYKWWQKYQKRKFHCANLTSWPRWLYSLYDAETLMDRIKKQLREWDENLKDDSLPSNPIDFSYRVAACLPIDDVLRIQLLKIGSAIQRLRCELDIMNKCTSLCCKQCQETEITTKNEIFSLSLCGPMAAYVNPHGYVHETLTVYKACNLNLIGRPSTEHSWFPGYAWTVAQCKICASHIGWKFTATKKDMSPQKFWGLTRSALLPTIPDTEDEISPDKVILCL

COc1cc2nc(C)nc(N[C@H](C)c3cc(N)cc(C(F)(F)F)c3)c2cc1O[C@H]1CCN(C(=O)CCCCCCCNc2ccc3c(c2)C(=O)N(C2CCC(=O)NC2=O)C3=O)C1 (some centres not stated)
Activity [1]: 20.9%
Activity [2]: 42.9%
Activity [3]: 6.6%

COc1cc2nc(C)nc(N[C@H](C)c3cc(N)cc(C(F)(F)F)c3)c2cc1O[C@H]1CCN(C(=O)CCCNc2cccc3c2C(=O)N(C2CCC(=O)NC2=O)C3=O)C1 (some centres not stated)
Activity [1]: 0%
Activity [2]: 8%
Activity [3]: 0.9%

COc1cc2nc(C)nc(N[C@H](C)c3cc(N)cc(C(F)(F)F)c3)c2cc1O[C@H]1CCN(C(=O)CCCCCNc2cccc3c2C(=O)N(C2CCC(=O)NC2=O)C3=O)C1 (some centres not stated)
Activity [1]: 5.7%
Activity [2]: 6.7%
Activity [3]: 14.3%

COc1cc2nc(C)nc(N[C@H](C)c3cc(N)cc(C(F)(F)F)c3)c2cc1O[C@H]1CCN(C(=O)CCCCCCC(=O)Nc2cccc3c2C(=O)N(C2CCC(=O)NC2=O)C3)C1 (some centres not stated)
Activity [1]: 0%
Activity [2]: 3.7%
Activity [3]: 2.6%

COc1cc2nc(C)nc(N[C@H](C)c3cc(N)cc(C(F)(F)F)c3)c2cc1O[C@H]1CCN(C(=O)CCCCCCCCC(=O)Nc2ccc3c(c2)C(=O)N(C2CCC(=O)NC2=O)C3)C1 (some centres not stated)
Activity [1]: 2.5%
Activity [2]: 0.6%
Activity [3]: 0%

COc1cc2nc(C)nc(N[C@H](C)c3cc(N)cc(C(F)(F)F)c3)c2cc1O[C@H]1CCN(C(=O)CCCCCCCNc2cccc3c2C(=O)N(C2CCC(=O)NC2=O)C3=O)C1 (some centres not stated)
Activity [1]: 13%
Activity [2]: 6.1%
Activity [3]: 15.3%

COc1cc2nc(C)nc(N[C@H](C)c3cc(N)cc(C(F)(F)F)c3)c2cc1O[C@H]1CCN(C(=O)CCCCCNc2ccc3c(c2)C(=O)N(C2CCC(=O)NC2=O)C3=O)C1 (some centres not stated)
Activity [1]: 11.9%
Activity [2]: 19.3%
Activity [3]: 5.6%

COc1cc2nc(C)nc(N[C@H](C)c3cc(N)cc(C(F)(F)F)c3)c2cc1O[C@H]1CCN(C(=O)CCCCCCCCC(=O)Nc2ccc3c(c2)CN(C2CCC(=O)NC2=O)C3=O)C1 (some centres not stated)
Activity [1]: 9.5%
Activity [2]: 9%
Activity [3]: 0%

COc1cc2nc(C)nc(N[C@H](C)c3cc(N)cc(C(F)(F)F)c3)c2cc1O[C@H]1CCN(C(=O)CCCCCCC(=O)Nc2cccc3c2CN(C2CCC(=O)NC2=O)C3=O)C1 (some centres not stated)
Activity [1]: 31.9%
Activity [2]: 65.4%
Activity [3]: 2.1%

COc1cc2nc(C)nc(N[C@H](C)c3cc(N)cc(C(F)(F)F)c3)c2cc1O[C@H]1CCN(C(=O)CNc2cccc3c2C(=O)N(C2CCC(=O)NC2=O)C3=O)C1 (some centres not stated)
Activity [1]: 2.6%
Activity [2]: 0%
Activity [3]: 1.7%

COc1cc2nc(C)nc(N[C@H](C)c3cc(N)cc(C(F)(F)F)c3)c2cc1O[C@H]1CCN(C(=O)CNc2ccc3c(c2)C(=O)N(C2CCC(=O)NC2=O)C3=O)C1 (some centres not stated)
Activity [1]: 0%
Activity [2]: 1.5%
Activity [3]: 0%

COc1cc2nc(C)nc(N[C@H](C)c3cc(N)cc(C(F)(F)F)c3)c2cc1O[C@H]1CCN(C(=O)CC(=O)Nc2cccc3c2C(=O)N(C2CCC(=O)NC2=O)C3)C1 (some centres not stated)
Activity [1]: 11.6%
Activity [2]: 9.2%
Activity [3]: 0%

COc1cc2nc(C)nc(N[C@H](C)c3cc(N)cc(C(F)(F)F)c3)c2cc1O[C@H]1CCN(C(=O)CCCCCCC(=O)Nc2ccc3c(c2)C(=O)N(C2CCC(=O)NC2=O)C3)C1 (some centres not stated)
Activity [1]: 37.6%
Activity [2]: 8.2%
Activity [3]: 7.9%

COc1cc2nc(C)nc(N[C@H](C)c3cc(N)cc(C(F)(F)F)c3)c2cc1O[C@H]1CCN(C(=O)CCCNc2ccc3c(c2)C(=O)N(C2CCC(=O)NC2=O)C3=O)C1 (some centres not stated)
Activity [1]: 8.9%
Activity [2]: 9.4%
Activity [3]: 4%

COc1cc2nc(C)nc(N[C@H](C)c3cc(N)cc(C(F)(F)F)c3)c2cc1O[C@H]1CCN(C(=O)CCCCCCCCCCC(=O)Nc2cccc3c2CN(C2CCC(=O)NC2=O)C3=O)C1 (some centres not stated)
Activity [1]: 0%
Activity [2]: 0%
Activity [3]: 0%

COc1cc2nc(C)nc(N[C@H](C)c3cc(N)cc(C(F)(F)F)c3)c2cc1O[C@H]1CCN(C(=O)CC(=O)Nc2ccc3c(c2)C(=O)N(C2CCC(=O)NC2=O)C3)C1 (some centres not stated)
Activity [1]: 6.1%
Activity [2]: 7.5%
Activity [3]: 8.5%

COc1cc2nc(C)nc(N[C@H](C)c3cc(N)cc(C(F)(F)F)c3)c2cc1O[C@H]1CCN(C(=O)CC(=O)Nc2cccc3c2CN(C2CCC(=O)NC2=O)C3=O)C1 (some centres not stated)
Activity [1]: 4.7%
Activity [2]: 7%
Activity [3]: 1%

COc1cc2nc(C)nc(N[C@H](C)c3cc(N)cc(C(F)(F)F)c3)c2cc1O[C@H]1CCN(C(=O)CCC(=O)Nc2ccc3c(c2)C(=O)N(C2CCC(=O)NC2=O)C3)C1 (some centres not stated)
Activity [1]: 20%
Activity [2]: 35.6%
Activity [3]: 13.7%

COc1cc2nc(C)nc(N[C@H](C)c3cc(N)cc(C(F)(F)F)c3)c2cc1O[C@H]1CCN(C(=O)CCCCC(=O)Nc2cccc3c2CN(C2CCC(=O)NC2=O)C3=O)C1 (some centres not stated)
Activity [1]: 0%
Activity [2]: 0%
Activity [3]: 1.8%

COc1cc2nc(C)nc(N[C@H](C)c3cc(N)cc(C(F)(F)F)c3)c2cc1O[C@H]1CCN(C(=O)CCCCCCCCC(=O)Nc2cccc3c2CN(C2CCC(=O)NC2=O)C3=O)C1 (some centres not stated)
Activity [1]: 39.1%
Activity [2]: 26.1%
Activity [3]: 11.4%

COc1cc2nc(C)nc(N[C@H](C)c3cc(N)cc(C(F)(F)F)c3)c2cc1O[C@H]1CCN(C(=O)CCCCC(=O)Nc2ccc3c(c2)CN(C2CCC(=O)NC2=O)C3=O)C1 (some centres not stated)
Activity [1]: 10%
Activity [2]: 15.6%
Activity [3]: 7.1%

COc1cc2nc(C)nc(N[C@H](C)c3cc(N)cc(C(F)(F)F)c3)c2cc1O[C@H]1CCN(C(=O)CCCCCCCCCNc2ccc3c(c2)C(=O)N(C2CCC(=O)NC2=O)C3=O)C1 (some centres not stated)
Activity [1]: 0%
Activity [2]: 0%
Activity [3]: 0%

COc1cc2nc(C)nc(N[C@H](C)c3cc(N)cc(C(F)(F)F)c3)c2cc1O[C@H]1CCN(C(=O)CCCCCCCCC(=O)Nc2cccc3c2C(=O)N(C2CCC(=O)NC2=O)C3)C1 (some centres not stated)
Activity [1]: 6.7%
Activity [2]: 18.1%
Activity [3]: 6.4%

COc1cc2nc(C)nc(N[C@H](C)c3cc(N)cc(C(F)(F)F)c3)c2cc1O[C@H]1CCN(C(=O)CCC(=O)Nc2cccc3c2C(=O)N(C2CCC(=O)NC2=O)C3)C1 (some centres not stated)
Activity [1]: 9.6%
Activity [2]: 0%
Activity [3]: 0%

COc1cc2nc(C)nc(N[C@H](C)c3cc(N)cc(C(F)(F)F)c3)c2cc1O[C@H]1CCN(C(=O)CCCCC(=O)Nc2ccc3c(c2)C(=O)N(C2CCC(=O)NC2=O)C3)C1 (some centres not stated)
Activity [1]: 12.2%
Activity [2]: 37.6%
Activity [3]: 2.7%

COc1cc2nc(C)nc(N[C@H](C)c3cc(N)cc(C(F)(F)F)c3)c2cc1O[C@H]1CCN(C(=O)CCCCCCC(=O)Nc2ccc3c(c2)CN(C2CCC(=O)NC2=O)C3=O)C1 (some centres not stated)
Activity [1]: 57.7%
Activity [2]: 4.1%
Activity [3]: 3.9%

COc1cc2nc(C)nc(N[C@H](C)c3cc(N)cc(C(F)(F)F)c3)c2cc1O[C@H]1CCN(C(=O)CC(=O)Nc2ccc3c(c2)CN(C2CCC(=O)NC2=O)C3=O)C1 (some centres not stated)
Activity [1]: 4%
Activity [2]: 9.3%
Activity [3]: 0%

COc1cc2nc(C)nc(N[C@H](C)c3cc(N)cc(C(F)(F)F)c3)c2cc1O[C@H]1CCN(C(=O)CCC(=O)Nc2ccc3c(c2)CN(C2CCC(=O)NC2=O)C3=O)C1 (some centres not stated)
Activity [1]: 0%
Activity [2]: 2.4%
Activity [3]: 0%

COc1cc2nc(C)nc(N[C@H](C)c3cc(N)cc(C(F)(F)F)c3)c2cc1O[C@H]1CCN(C(=O)CCCCC(=O)Nc2cccc3c2C(=O)N(C2CCC(=O)NC2=O)C3)C1 (some centres not stated)
Activity [1]: 1.6%
Activity [2]: 10.2%
Activity [3]: 5.6%
